From ChEMBL document CHEMBL1201862, “PubChem BioAssay data set” (2004)
Active and inactive are the calls of the source.

Key:
[1] = target: T1, G-protein coupled receptor 55 (Homo sapiens, UniProt Q9Y2T6); assay: selective activators of receptor GPR55 – imaging, U2OS cells, beta-arrestin-GFP redistribution, primary screen (AID 1961); type: functional
[2] = target: T1, G-protein coupled receptor 55; assay: inhibition of LPI-stimulated GPR55 beta-arrestin translocation – imaging, U2OS, beta-arrestin-GFP, LPI agonist, primary screen (AID 2013); type: functional;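 note: antagonist potency measured as reduced agonist-driven arrestin aggregation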
HEK293 [3] = assay: NOD2 signaling inhibitors in MDP-stimulated cells, cell-based, uHTS, luminescence (AID 2001); type: functional; settings: Homo sapiens
HEK293 [4] = assay: inhibition of NOD1-driven NF-kB reporter – cell-based, luminescence, uHTS, primary screen (AID 1578); type: functional; settings: Homo sapiens
cells = type: functional
[5] = luciferase reporter signal suppression in cells – H4 neuroglioma cells, luminescence, dose response (AID 1990); type: functional, cell-based
INS1 = assay: INS-1E survival protection against cytokine death – cell-based, luminescence, retest, dose response (AID 449756); type: functional; settings: Rattus norvegicus;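 note: cell death triggered by IL-1 beta plus TNF-alpha plus IFN-gamma mixture; protective hits raise ATP signal compared with cytokine alone wells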
[6] = THP-1 cell cytotoxicity, dose response, cytotoxicity control for non-replicating M. tuberculosis project (AID 489025); type: functional
[7] = Luminescence Cell-Based Dose Response HTS to Identify Inhibitors of 5'UTR Stem-Loop Driven Prion Protein mRNA Translation in H4 Neuroglioblastoma Cells. [Related pubchem assays: 1827 (Project Summary), 1813 (Primary HTS)]; type: functional
HEK293 [8] = assay: cells; type: functional, cell-based; settings: Homo sapiens
HEK293 [9] = assay: cells; type: functional, cell-based; settings: Homo sapiens; remark: listed apart in the source
[10] = alpha-synuclein stem-loop luciferase translation blockers – H4 neuroglioma cells, luminescence, confirmation (AID 1988); type: functional, cell-based
[11] = NIH3T3 cell viability loss – ATP luminescence, mouse fibroblasts, counter-screen, dose response (AID 2010); type: functional, cell-based;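 note: cells exposed to compound for about 90 hours before reading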
[12] = Vero E6 cell cytotoxicity, dose response, cytotoxicity control for non-replicating M. tuberculosis project, secondary assay (AID 492998); type: functional, VeroE6; settings: Vero C1008
[13] = microbe, parasite or virus in culture; type: functional; settings: Mycobacterium tuberculosis
HEK293 [14] = assay: cells; type: functional, cell-based; settings: Homo sapiens; remark: listed apart in the source
[15] = target: Nucleotide-binding oligomerization domain-containing protein 2 (Homo sapiens, UniProt Q9HC29); assay: inhibition of NOD2-driven NF-kB reporter – cell-based, luminescence, uHTS, HEK293 (AID 1566); type: functional
[16] = Trypanosoma cruzi growth suppression in host cells – NIH3T3 host cells, beta-gal luminescence, confirmation (AID 2044); type: functional, cell-based;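 note: intracellular parasites grown in NIH/3T3 mouse fibroblasts as host cells; luminescent beta-galactosidase reporter signal from transgenic T. cruzi replicating inside host cells; inhibitors lower the luminescence signal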
Vero [17] = assay: Vero 76 cell viability after compound exposure – Vero 76 cells, synthesized analogs, cytotoxicity control for West Nile virus antiviral project, SAR follow-up (AID 2414); type: functional; settings: Chlorocebus sabaeus
Vero [18] = assay: antiviral protection of cells from WNV – synthesized analogs, SAR follow-up (AID 2238); type: functional, cell-based; settings: Chlorocebus sabaeus
Vero [19] = assay: host cell viability loss, Vero E6 – synthesized analogs, cytotoxicity control for West Nile virus antiviral project, SAR follow-up (AID 2244); type: functional; settings: Chlorocebus sabaeus
[20] = HPDE-C7 pancreatic duct cell viability loss – fluorescence, HTS (AID 430); type: functional, cell-based; settings: Homo sapiens
[21] = viability loss of HPDE-C7K cells – cell-based, fluorescence, HTS, primary screen (AID 431); type: functional; settings: Homo sapiens
[22] = target: T2, Short transient receptor potential channel 4 (Mus musculus, UniProt Q9QUQ5); assay: potentiation of DAMGO-evoked TRPC4 calcium signal – cell-based, HEK293 TRPC4/mu-opioid, Fluo-4 calcium, EC20 DAMGO, dose response (AID 434941); type: functional
T2 sequence (Q9QUQ5 whole entry): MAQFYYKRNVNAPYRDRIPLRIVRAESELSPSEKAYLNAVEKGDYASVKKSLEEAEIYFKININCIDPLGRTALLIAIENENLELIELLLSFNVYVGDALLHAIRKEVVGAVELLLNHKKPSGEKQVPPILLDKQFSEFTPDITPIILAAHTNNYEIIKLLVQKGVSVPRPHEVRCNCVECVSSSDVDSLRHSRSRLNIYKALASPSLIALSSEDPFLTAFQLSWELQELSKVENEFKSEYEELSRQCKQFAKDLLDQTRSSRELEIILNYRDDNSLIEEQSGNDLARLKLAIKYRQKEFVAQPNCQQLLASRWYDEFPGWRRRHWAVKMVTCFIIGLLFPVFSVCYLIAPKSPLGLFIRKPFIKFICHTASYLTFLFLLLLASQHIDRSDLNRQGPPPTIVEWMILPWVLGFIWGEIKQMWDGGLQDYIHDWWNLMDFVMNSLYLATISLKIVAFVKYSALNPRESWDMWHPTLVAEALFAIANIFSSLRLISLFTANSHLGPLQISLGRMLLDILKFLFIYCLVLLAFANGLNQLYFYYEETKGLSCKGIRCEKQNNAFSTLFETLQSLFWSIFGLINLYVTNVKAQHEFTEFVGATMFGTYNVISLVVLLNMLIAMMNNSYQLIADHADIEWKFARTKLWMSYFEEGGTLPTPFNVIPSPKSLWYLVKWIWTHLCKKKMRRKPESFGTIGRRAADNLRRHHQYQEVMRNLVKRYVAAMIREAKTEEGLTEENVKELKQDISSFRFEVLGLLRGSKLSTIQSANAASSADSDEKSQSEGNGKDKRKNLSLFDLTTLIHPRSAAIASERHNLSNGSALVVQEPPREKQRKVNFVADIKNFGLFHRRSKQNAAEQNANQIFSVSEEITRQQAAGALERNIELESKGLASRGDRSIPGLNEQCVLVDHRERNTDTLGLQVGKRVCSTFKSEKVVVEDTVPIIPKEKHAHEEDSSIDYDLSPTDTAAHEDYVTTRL

T1 sequence (Q9Y2T6 whole entry): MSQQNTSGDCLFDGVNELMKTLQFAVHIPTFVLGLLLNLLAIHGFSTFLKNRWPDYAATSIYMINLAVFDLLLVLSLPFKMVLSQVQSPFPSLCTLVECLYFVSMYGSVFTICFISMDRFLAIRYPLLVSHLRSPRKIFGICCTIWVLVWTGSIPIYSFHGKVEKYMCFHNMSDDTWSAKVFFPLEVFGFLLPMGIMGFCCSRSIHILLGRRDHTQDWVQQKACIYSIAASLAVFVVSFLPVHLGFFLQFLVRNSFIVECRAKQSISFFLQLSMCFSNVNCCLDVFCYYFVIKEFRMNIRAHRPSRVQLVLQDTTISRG
Sequence of Nucleotide-binding oligomerization domain-containing protein 2 (Q9HC29 whole entry, the tested form may be a part): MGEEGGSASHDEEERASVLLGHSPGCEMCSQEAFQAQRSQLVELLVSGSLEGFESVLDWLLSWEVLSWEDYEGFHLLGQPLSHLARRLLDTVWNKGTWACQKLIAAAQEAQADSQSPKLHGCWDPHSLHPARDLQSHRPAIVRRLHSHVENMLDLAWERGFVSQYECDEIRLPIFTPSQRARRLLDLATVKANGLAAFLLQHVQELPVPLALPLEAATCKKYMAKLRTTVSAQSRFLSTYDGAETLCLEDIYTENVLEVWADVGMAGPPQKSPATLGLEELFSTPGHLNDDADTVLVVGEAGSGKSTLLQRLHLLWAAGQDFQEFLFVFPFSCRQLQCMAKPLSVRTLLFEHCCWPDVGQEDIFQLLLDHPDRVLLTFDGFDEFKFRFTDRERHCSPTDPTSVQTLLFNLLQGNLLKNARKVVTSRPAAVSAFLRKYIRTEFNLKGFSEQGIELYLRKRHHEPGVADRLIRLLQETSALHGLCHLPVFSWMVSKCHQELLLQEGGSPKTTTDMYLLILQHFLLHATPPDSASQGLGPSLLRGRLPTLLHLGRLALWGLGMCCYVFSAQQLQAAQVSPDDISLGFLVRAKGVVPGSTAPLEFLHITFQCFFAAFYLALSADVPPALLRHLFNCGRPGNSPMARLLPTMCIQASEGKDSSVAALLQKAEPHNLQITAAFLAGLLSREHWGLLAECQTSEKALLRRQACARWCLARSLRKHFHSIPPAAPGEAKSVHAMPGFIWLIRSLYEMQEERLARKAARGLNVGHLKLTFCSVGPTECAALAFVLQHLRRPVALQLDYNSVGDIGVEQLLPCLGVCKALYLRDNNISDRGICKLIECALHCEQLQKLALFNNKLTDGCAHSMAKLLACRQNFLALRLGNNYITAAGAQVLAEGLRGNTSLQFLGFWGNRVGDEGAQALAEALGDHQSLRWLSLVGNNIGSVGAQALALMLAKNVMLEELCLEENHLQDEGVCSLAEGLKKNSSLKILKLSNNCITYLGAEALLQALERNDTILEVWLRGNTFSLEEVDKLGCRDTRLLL

COc1ccccc1OCC(=O)/C=C1/N(C)c2ccccc2C1(C)C
EC50 [1]: 5.48 µM (active)

N#C/C(=C/c1c[nH]nc1-c1cccc(Br)c1)C(=O)O
IC50 [2]: 1.12 µM (active)

Cc1cc(N/N=C/c2ccccc2[N+](=O)[O-])nc(-n2nc(C)cc2C)n1
IC50 (HEK293 [3]): 6.54 µM (inactive)
EC50 (HEK293 [4]): 6.21 µM (active)
IC50 (cells): 0.6 µM (active)
EC50 [5]: 13.3 µM (active)
AC50 (INS1): 2.77 µM (active)
CC50 [6]: 4.01 µM (active)
EC50 [7]: 13.1 µM (active)
IC50 (HEK293 [8]): > 20 µM (inactive)
IC50 (HEK293 [9]): > 20 µM (inactive)
EC50 [10]: > 120 µM (not active)
EC50 [11]: 7.48 µM (active)
CC50 [12]: 6.96 µM (active)
CC50 [13]: 15.5 µM (active)
IC50 (HEK293 [14]): 15.6 µM (active)
EC50 [15]: > 20 µM (inactive)
EC50 [16]: 2.26 µM (active)

O=C(CSc1nc2ccccc2c(=O)n1-c1ccccc1)Nc1ccc2c(c1)CCC2
CC50 (Vero [17]): > 66.6 µM (active)
IC50 (Vero [18]): 15.5 µM (active)
CC50 (Vero [19]): > 40 µM (active)

CCCC1(c2ccccc2)NC(=O)N(CC(=O)c2[nH]c(C)c(C(=O)OCC)c2C)C1=O (centres undefined)
EC50 [20]: > 20 µM (not active)
EC50 [21]: > 20 µM (not active)
EC50 [22]: 2.66 µM (active)
